Experiments:
[1] = system: GmCERK1^ECDY109R; assay: MST binding to GmCERK1^ECD mutant Y109R; set-up: species or system soybean (Glycine max); conditions: ligand dp6
From the text: The ectodomains of GmCERK1, GmNFR5a, and mutants were cloned into the yeast expression vector pPICZαA (Thermo Fisher Scientific, Shanghai, China) through the double digestion and ligation using the restriction endonuclease EcoRI/XbaI (NEB, Suzhou, China) and T4 ligase. Then, the linearized recombinant plasmid pPICZαA‐GmCERK1 and pPICZαA‐GmNFR5a were transformed into P. pastoris X‐33. The positive colonies were selected on YPDS medium (1% w/v yeast extract, 2% w/v peptone, 2% w/v glucose, 2% w/v agar, 100 μg/mL antibiotic Zeocin (Thermo Fisher Scientific)) plates and verified by direct DNA sequencing. Protein expression was carried out initially in BMGY media (100 mM potassium phosphate pH 6.0, 1.34% w/v YNB, 4 × 10^−5% w/v biotin, 1% v/v glycerol) at 28°C with shaking (180 rpm) until the OD600 reached 2.0–6.0. The cell pellet was transferred into BMMY medium (100 mM potassium phosphate pH 6.0, 1.34% w/v YNB, 4 × 10^−5% w/v biotin, 0.5% v/v methanol) and continuously supplied with the addition of 0.5% (v/v) methanol every day for 5 d. […]
GmCERK1^ECD, GmNFR5a^ECD, and all mutants were labeled with a fluorescent dye using the Monolith Protein Labeling Kit RED‐NHS second Generation (MO‐L011). […] The data were analyzed and fitted by plotting ligand concentrations against bound fractions using the MO.Affinity Analysis v3.0.5 software. […]

[2] = target: T1, AtCERK1^ECD (Arabidopsis thaliana, UniProt A8R7E6); set-up: method as in Cao et al., 2014; conditions: isothermal titration calorimetry (ITC); ref Cao et al., 2014; read-out: K D for AtCERK1^ECD with CTOS; cited from earlier work
T1 construct: ectodomain of AtCERK1 (aa25–224); made in house; host or cells: Pichia pastoris X-33
T1 sequence (A8R7E6 25-224): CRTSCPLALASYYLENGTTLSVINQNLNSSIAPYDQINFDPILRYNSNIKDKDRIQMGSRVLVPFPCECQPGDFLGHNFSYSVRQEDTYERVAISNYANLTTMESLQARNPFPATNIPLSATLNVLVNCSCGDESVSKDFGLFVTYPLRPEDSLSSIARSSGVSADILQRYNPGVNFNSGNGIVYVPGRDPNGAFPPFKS

[3] = system: Phytophthora sojae P6497; assay: P. sojae infection of pretreated soybean hairy roots (GFP control); format: in vivo, Phytophthora sojae on soybean (Glycine max); conditions: control hairy roots expressing GFP; 50 mg/L soak 12 h; 48 hpi; vs dH2O; P < 0.0001
From the text: Soybean (cultivar Williams) seeds were surface sterilized and germinated as previously described ([Kereszt et al., 2007]). Soybean cotyledons were removed from […] seedlings grown in vermiculite. Cotyledons were harvested at Day 7 by gently twisting them off the hypocotyl. Only unblemished cotyledons were employed for all protocols. Individual cotyledons were surface sterilized by wiping with an alcohol swab soaked in 70% ethanol. The alcohol swab was wrung out slightly before use, so that it was wet but not dripping. […] Hairy roots were monitored for green fluorescence production over a period of 4 weeks. For silencing in hairy roots, the transcript levels of the targeted gene and its closest paralogs were measured in fluorescent green hairy roots using qRT‐PCR to assess silencing efficiency.
For soybean etiolated hypocotyls inoculation assays, etiolated hypocotyls of soybean (cultivar Williams) were inoculated with P. sojae zoospore suspensions (100 zoospores). […] For soybean hairy‐root inoculation assays, transgenic hairy roots were soaked in CTOS/CSOS (50 mg/L) or mock (dH2O) for 12 h and then were infected with red fluorescent protein (RFP)‐labeled P. sojae strain P6497, and fluorescence was visualized in the infected area of soybean hairy root and the biomass of P. sojae was determined by qRT‐PCR at 48 hpi.

SMILES | interaction with GmCERK1^ECDY109R [1] | Kd [2] | soybean defense against P. sojae (pathogen biomass) [3]
N[C@H]1[C@H](O[C@H]2[C@H](O)[C@@H](N)[C@H](O[C@H]3[C@H](O)[C@@H](N)[C@H](O[C@H]4[C@H](O)[C@@H](N)[C@H](O[C@H]5[C@H](O)[C@@H](N)[C@H](O[C@H]6[C@H](O)[C@@H](N)C(O)O[C@@H]6CO)O[C@@H]5CO)O[C@@H]4CO)O[C@@H]3CO)O[C@@H]2CO)O[C@H](CO)[C@@H](O)[C@@H]1O (stereo partly drawn) [CSOS (dp6), chitosan oligosaccharide] | cannot interact |  | 
CC(=O)N[C@H]1[C@H](O[C@H]2[C@H](O)[C@@H](NC(C)=O)[C@H](O[C@H]3[C@H](O)[C@@H](NC(C)=O)C(O)O[C@@H]3CO)O[C@@H]2CO)O[C@H](CO)[C@@H](O[C@@H]2O[C@H](CO)[C@@H](O[C@@H]3O[C@H](CO)[C@@H](O[C@@H]4O[C@H](CO)[C@@H](O)[C@H](O)[C@H]4NC(C)=O)[C@H](O)[C@H]3NC(C)=O)[C@H](O)[C@H]2NC(C)=O)[C@@H]1O (stereo partly drawn) [CTOS (dp6), chitin oligosaccharide] |  | 455 µM | significantly bolstered
